Experimental data reported in patent US20180179189A1, “ADIPATE FORMS AND COMPOSITIONS OF BIARYL INHIBITORS OF BRUTON'S TYROSINE KINASE” (BIOGEN MA INC., priority 2015, published 2018).

How the values were obtained:
Btk = settings: reported in the '853 application; read-out: IC50 in a pBTK assay; cited from earlier work
[1] = pKa via potentiometric titration; assay type: physicochemical
Source text: Where this threshold is not met, non-ionic interactions (e.g., hydrogen bonds) can still occur between neutral acid and the base compounds to form, e.g., a co-crystal.

[2] = DVS (dynamic vapor sorption) test; assay type: physicochemical
Method: DVS was measured via a SMS (Surface Measurement Systems) DVS Intrinsic. The relative humidity at 25° C. were calibrated against deliquescence point of LiCl, Mg(NO3)2 and KCl.

Row | SMILES | IC50 (Btk) [nM] | pKa [1] | form change after the DVS test (XRPD) [2] | water uptake (DVS) ([2]; 25° C./80% RH) [%] | hygroscopicity ([2]; from DVS, 25° C./80% RH)
1 | Cc1cc(-c2ccnc(Nc3cnn(C)c3)n2)ccc1CNC(=O)N1CC(OC(C)C)C1 [Compound 1, 3-isopropoxy-N-(2-methyl-4-(2-((1-methyl-1H-pyrazol-4-yl)amino)pyrimidin-4-yl)benzyl)azetidine-1-carboxamide] | […] | 3.31 |  |  | 
2 | Cc1cc(-c2ccnc(Nc3cnn(C)c3)n2)ccc1CNC(=O)N1CC(OC(C)C)C1 [Compound 2 Type II] |  |  | no form change | 0.3 | slightly hygroscopic
